Each structure is given as a SMILES string.

Experimental findings from patent publication US20120040977A1, “INHIBITORS OF HCV NS5A” (PRESIDIO PHARMACEUTICALS, INC., priority 2009, published 2012) are described below.

This test deals with HCV genotype 1b replicon. Briefly: HCV replicon assay (HCV 1b_Huh-Luc/Neo-ET cell line, luciferase readout). Format: cell-based. Particulars: Hepatitis C virus; bicistronic genotype 1b replicon in Huh 7 cells, 72 h incubation, luciferase enzyme activity; read-out: Inhibition of HCV genotype 1b. On the procedure:
Biological activity of the compounds of the invention was determined using an HCV replicon assay. The HCV 1b_Huh-Luc/Neo-ET cell line persistently expressing a bicistronic genotype 1b replicon in Huh 7 cells was obtained from ReBLikon GMBH. This cell line was used to test compound inhibition using luciferase enzyme activity readout as a measurement of compound inhibition of replicon levels.
On Day 1 (the day after plating cells), each compound is added in triplicate to the cells. Plates are incubated for 72 h prior to determining luciferase levels. Enzyme activity was measured using a Bright-Glo Kit (cat. number E2620) manufactured by Promega Corporation. The following equation was used to generate a percent control value for each compound.
% Control=(Average Compound Value/Average Control)*100
The EC50 value was determined using GraphPad Prism and the following equation:
Y=Bottom+(Top−Bottom)/(1+10̂((LogIC50−X)*HillSlope))
EC50 values of compounds are determined several times in the replicon assay. […]
For orientation: Replicon systems follow genome replication, usually without infectious particles.
Turning to `O=C(N[C@@H](C(=O)N1CCOC[C@H]1C(=O)Nc1ccc(-c2ccc(-c3cnc([C@@H]4COCCN4C(=O)[C@H](NC(=O)C4CC4)c4ccccc4)[nH]3)cc2)cc1)c1ccccc1)C1CC1` [Compound 1], the EC50 is under 1 nM.

In the case of `O=C(Nc1ccc(-c2ccc(-c3cnc([C@@H]4COCCN4C(=O)[C@H](NC(=O)N4CCOCC4)c4ccccc4)[nH]3)cc2)cc1)[C@@H]1COCCN1C(=O)[C@H](NC(=O)N1CCOCC1)c1ccccc1` [Compound 2], the EC50 lay in the range of 1 to 9.9 nM.

Consider `O=C(N[C@@H](C(=O)N1CCOC[C@H]1C(=O)Nc1ccc(-c2ccc(-c3cnc([C@@H]4CCCN4C(=O)[C@H](NC(=O)C4CC4)c4ccccc4)[nH]3)cc2)cc1)c1ccccc1)C1CC1` [Compound 3], for which the EC50 is under 1 nM.

As to `CC(C)(C)OC(=O)N1CCOCC1C(=O)Nc1ccc(-c2ccc(-c3cnc([C@@H]4COCCN4C(=O)OC(C)(C)C)[nH]3)cc2)cc1` (some centres unmarked) [Compound 4], the EC50 is over 1000 nM.

Take `CC(C)(C)OC(=O)N1CCC[C@H]1C(=O)Nc1ccc(-c2ccc(-c3cnc([C@@H]4COCCN4C(=O)OC(C)(C)C)[nH]3)cc2)cc1` [Compound 5]: the EC50 is over 1000 nM.

Turning to `CC(C)(C)OC(=O)N1CCOCC1C(=O)Nc1ccc(-c2ccc(-c3cnc([C@@H]4CCCN4C(=O)OC(C)(C)C)[nH]3)cc2)cc1` (some centres unmarked) [Compound 6], the EC50 lay in the range of 10 to 999 nM.

Regarding `CC(C)(C)OC(=O)N[C@@H](C(=O)N1CCC[C@H]1C(=O)Nc1ccc(-c2ccc(-c3cnc([C@@H]4COCCN4C(=O)[C@H](NC(=O)OC(C)(C)C)c4ccccc4)[nH]3)cc2)cc1)c1ccccc1` [Compound 8], the EC50 is under 1 nM.

For `C[C@@H](NC(=O)OC(C)(C)C)C(=O)N1CCC[C@H]1C(=O)Nc1ccc(-c2ccc(-c3cnc([C@@H]4COCCN4C(=O)[C@@H](C)NC(=O)OC(C)(C)C)[nH]3)cc2)cc1` [Compound 9], the EC50 lay within 10 to 999 nM.

Turning to `CC(C)[C@@H](NC(=O)OC(C)(C)C)C(=O)N1CCC[C@H]1C(=O)Nc1ccc(-c2ccc(-c3cnc([C@@H]4COCCN4C(=O)[C@H](NC(=O)OC(C)(C)C)C(C)C)[nH]3)cc2)cc1` [Compound 10], the EC50 lay in the range of 10 to 999 nM.

For `O=C(N[C@@H](C(=O)N1CCC[C@H]1C(=O)Nc1ccc(-c2ccc(-c3cnc([C@@H]4COCCN4C(=O)[C@H](NC(=O)C4CC4)c4ccccc4)[nH]3)cc2)cc1)c1ccccc1)C1CC1` [Compound 11], the EC50 was under 1 nM.

For the compound `C[C@@H](NC(=O)OC(C)(C)C)C(=O)N1CCOC[C@H]1C(=O)Nc1ccc(-c2ccc(-c3cnc([C@@H]4CCCN4C(=O)[C@@H](C)NC(=O)OC(C)(C)C)[nH]3)cc2)cc1` [Compound 12], the EC50 was in the range of 10 to 999 nM.

`CC(C)[C@@H](NC(=O)OC(C)(C)C)C(=O)N1CCOC[C@H]1C(=O)Nc1ccc(-c2ccc(-c3cnc([C@@H]4CCCN4C(=O)[C@H](NC(=O)OC(C)(C)C)C(C)C)[nH]3)cc2)cc1` [Compound 13]: the EC50 was 10 to 999 nM.

Regarding `C[C@@H](NC(=O)OC(C)(C)C)C(=O)N1CCC[C@H]1C(=O)Nc1ccc(-c2ccc(-c3cnc([C@@H]4CCCN4C(=O)[C@@H](C)NC(=O)OC(C)(C)C)[nH]3)cc2)cc1` [Compound 14], the EC50 lay in the range of 1 to 9.9 nM.

Regarding `CC(C)[C@@H](NC(=O)OC(C)(C)C)C(=O)N1CCC[C@H]1C(=O)Nc1ccc(-c2ccc(-c3cnc([C@@H]4CCCN4C(=O)[C@H](NC(=O)OC(C)(C)C)C(C)C)[nH]3)cc2)cc1` [Compound 15], the EC50 lay within 1 to 9.9 nM.

Regarding `CC(C)(C)OC(=O)N[C@@H](C(=O)N1CCOC[C@H]1C(=O)Nc1ccc(-c2ccc(-c3cnc([C@@H]4COCCN4C(=O)[C@H](NC(=O)OC(C)(C)C)c4ccccc4)[nH]3)cc2)cc1)c1ccccc1` [Compound 16], the EC50 is under 1 nM.

For the compound `C[C@@H](NC(=O)OC(C)(C)C)C(=O)N1CCOC[C@H]1C(=O)Nc1ccc(-c2ccc(-c3cnc([C@@H]4COCCN4C(=O)[C@@H](C)NC(=O)OC(C)(C)C)[nH]3)cc2)cc1` [Compound 17], the EC50 is 10 to 999 nM.

With `CC(C)[C@@H](NC(=O)OC(C)(C)C)C(=O)N1CCOC[C@H]1C(=O)Nc1ccc(-c2ccc(-c3cnc([C@@H]4COCCN4C(=O)[C@H](NC(=O)OC(C)(C)C)C(C)C)[nH]3)cc2)cc1` [Compound 18], the EC50 lay in the range of 10 to 999 nM.

Turning to `C[C@@H](NC(=O)C1CC1)C(=O)N1CCC[C@H]1C(=O)Nc1ccc(-c2ccc(-c3cnc([C@@H]4COCCN4C(=O)[C@@H](C)NC(=O)C4CC4)[nH]3)cc2)cc1` [Compound 19], the EC50 fell in the range of 1 to 9.9 nM.

Turning to `CC(C)[C@@H](NC(=O)C1CC1)C(=O)N1CCC[C@H]1C(=O)Nc1ccc(-c2ccc(-c3cnc([C@@H]4COCCN4C(=O)[C@H](NC(=O)C4CC4)C(C)C)[nH]3)cc2)cc1` [Compound 20], the EC50 fell in the range of 1 to 9.9 nM.

For the compound `CC(C)(C)OC(=O)N[C@@H](C(=O)N1CCOC[C@H]1C(=O)Nc1ccc(-c2ccc(-c3cnc([C@@H]4CCCN4C(=O)[C@H](NC(=O)OC(C)(C)C)c4ccccc4)[nH]3)cc2)cc1)c1ccccc1` [Compound 21], the EC50 is under 1 nM.

For `C[C@@H](NC(=O)C1CC1)C(=O)N1CCOC[C@H]1C(=O)Nc1ccc(-c2ccc(-c3cnc([C@@H]4CCCN4C(=O)[C@@H](C)NC(=O)C4CC4)[nH]3)cc2)cc1` [Compound 22], the EC50 was in the range of 1 to 9.9 nM.

Turning to `CC(C)[C@@H](NC(=O)C1CC1)C(=O)N1CCOC[C@H]1C(=O)Nc1ccc(-c2ccc(-c3cnc([C@@H]4CCCN4C(=O)[C@H](NC(=O)C4CC4)C(C)C)[nH]3)cc2)cc1` [Compound 23], the EC50 was in the range of 1 to 9.9 nM.

For `C[C@@H](NC(=O)C1CC1)C(=O)N1CCOC[C@H]1C(=O)Nc1ccc(-c2ccc(-c3cnc([C@@H]4COCCN4C(=O)[C@@H](C)NC(=O)C4CC4)[nH]3)cc2)cc1` [Compound 24], the EC50 was in the range of 10 to 999 nM.

For the compound `CC(C)[C@@H](NC(=O)C1CC1)C(=O)N1CCOC[C@H]1C(=O)Nc1ccc(-c2ccc(-c3cnc([C@@H]4COCCN4C(=O)[C@H](NC(=O)C4CC4)C(C)C)[nH]3)cc2)cc1` [Compound 25], the EC50 lay within 1 to 9.9 nM.

With `CC(C)(C)OC(=O)N[C@@H](C(=O)N1CCC[C@H]1C(=O)Nc1ccc(-c2ccc(-c3cnc([C@@H]4CCCN4C(=O)[C@H](NC(=O)OC(C)(C)C)c4ccccc4)[nH]3)cc2)cc1)c1ccccc1` [Compound 26], the EC50 is under 1 nM.

Take `O=C(N[C@@H](C(=O)N1CCC[C@H]1C(=O)Nc1ccc(-c2ccc(-c3cnc([C@@H]4CCCN4C(=O)[C@H](NC(=O)C4CC4)c4ccccc4)[nH]3)cc2)cc1)c1ccccc1)C1CC1` [Compound 27]: the EC50 is under 1 nM.

Consider `C[C@@H](NC(=O)C1CC1)C(=O)N1CCC[C@H]1C(=O)Nc1ccc(-c2ccc(-c3cnc([C@@H]4CCCN4C(=O)[C@@H](C)NC(=O)C4CC4)[nH]3)cc2)cc1` [Compound 28], for which the EC50 lay in the range of 1 to 9.9 nM.

Take `CC(C)[C@@H](NC(=O)C1CC1)C(=O)N1CCC[C@H]1C(=O)Nc1ccc(-c2ccc(-c3cnc([C@@H]4CCCN4C(=O)[C@H](NC(=O)C4CC4)C(C)C)[nH]3)cc2)cc1` [Compound 29]: the EC50 fell in the range of 1 to 9.9 nM.

Regarding `CC(C)(C)OC(=O)N[C@@H](C(=O)N1CCC[C@H]1COc1ccc(-c2ccc(-c3cnc([C@@H]4CCCN4C(=O)[C@H](NC(=O)OC(C)(C)C)c4ccccc4)[nH]3)cc2)cc1)c1ccccc1` [Compound 30], the EC50 was under 1 nM.

As for `O=C(N[C@@H](C(=O)N1CCC[C@H]1COc1ccc(-c2ccc(-c3cnc([C@@H]4CCCN4C(=O)[C@H](NC(=O)C4CC4)c4ccccc4)[nH]3)cc2)cc1)c1ccccc1)C1CC1` [Compound 31], the EC50 was under 1 nM.

Turning to `O=C(N[C@@H](C(=O)N1CCC[C@H]1COc1ccc(-c2ccc(-c3cnc([C@@H]4CCCN4C(=O)[C@H](NC(=O)N4CCOCC4)c4ccccc4)[nH]3)cc2)cc1)c1ccccc1)N1CCOCC1` [Compound 32], the EC50 was under 1 nM.

With `CC(C)(C)OC(=O)N[C@@H](C(=O)N1CCC[C@H]1C(=O)NCc1ccc(-c2ccc(-c3cnc([C@@H]4CCCN4C(=O)[C@H](NC(=O)OC(C)(C)C)c4ccccc4)[nH]3)cc2)cc1)c1ccccc1` [Compound 33], the EC50 is under 1 nM.

Turning to `C[C@H](NC(=O)[C@@H]1CCCN1C(=O)[C@H](NC(=O)OC(C)(C)C)c1ccccc1)c1ccc(-c2ccc(-c3cnc([C@@H]4CCCN4C(=O)[C@H](NC(=O)OC(C)(C)C)c4ccccc4)[nH]3)cc2)cc1` [Compound 34], the EC50 is under 1 nM.

Turning to `CN1CCN(C(=O)N[C@@H](C(=O)N2CCC[C@H]2COc2ccc(-c3ccc(-c4cnc([C@@H]5CCCN5C(=O)[C@H](NC(=O)N5CCN(C)CC5)c5ccccc5)[nH]4)cc3)cc2)c2ccccc2)CC1` [Compound 35], the EC50 lay in the range of 1 to 9.9 nM.

Turning to `C[C@H](NC(=O)[C@@H]1CCCN1C(=O)[C@H](NC(=O)N1CCN(C)CC1)c1ccccc1)c1ccc(-c2ccc(-c3cnc([C@@H]4CCCN4C(=O)[C@H](NC(=O)N4CCN(C)CC4)c4ccccc4)[nH]3)cc2)cc1` [Compound 36], the EC50 was 1 to 9.9 nM.

As for `C[C@H](NC(=O)[C@@H]1CCCN1C(=O)[C@H](NC(=O)C1CC1)c1ccccc1)c1ccc(-c2ccc(-c3cnc([C@@H]4CCCN4C(=O)[C@H](NC(=O)C4CC4)c4ccccc4)[nH]3)cc2)cc1` [Compound 37], the EC50 is under 1 nM.

`C[C@H](NC(=O)[C@@H]1CCCN1C(=O)[C@H](NC(=O)N1CCOCC1)c1ccccc1)c1ccc(-c2ccc(-c3cnc([C@@H]4CCCN4C(=O)[C@H](NC(=O)N4CCOCC4)c4ccccc4)[nH]3)cc2)cc1` [Compound 38]: the EC50 fell in the range of 1 to 9.9 nM.

Regarding `C[C@@H](NC(=O)[C@@H]1CCCN1C(=O)[C@H](NC(=O)OC(C)(C)C)c1ccccc1)c1ccc(-c2ccc(-c3cnc([C@@H]4CCCN4C(=O)[C@H](NC(=O)OC(C)(C)C)c4ccccc4)[nH]3)cc2)cc1` [Compound 39], the EC50 is under 1 nM.
